From US8470786B2, “Pyrroloquinolinyl-pyrrolidine-2,5-dione compositions and methods for preparing and using same” (ArQule, Inc., priority 2010, dated 2013)

Assays:
[1] = molecular target: c-Met (Homo sapiens, UniProt P08581); assay: c-Met autophosphorylation inhibition assay (biochemical); details: method per J. Biol. Chem. 286(23), 20666-20676
Procedure: c-Met Autophosphorylation Inhibition assay was carried out according to Journal of Biological Chemistry 286(23), 20666-20676 (Jun. 10, 2010).

[2] = tested on: HT29; assay: Cell proliferation analysis (MTS assay); type: cell-based; details: Homo sapiens, HT-29, HT29 cells, treated for 72 hours, read-out: Antiproliferative activity (HT29 MTS GI50)
Procedure: Cell survival was determined by the MTS assay. Briefly, cells were plated in a 96-well plate at 2,000-10,000 cells per well, cultured for 24 hours in complete growth medium, and then treated with various drugs and drug combinations for 72 hours. MTS was added and incubated for 4 hour, followed by assessment of cell viability using the microplate reader at 570 nm. Data were normalized to untreated controls and analyzed.

Sequence of c-Met (P08581 25-1390): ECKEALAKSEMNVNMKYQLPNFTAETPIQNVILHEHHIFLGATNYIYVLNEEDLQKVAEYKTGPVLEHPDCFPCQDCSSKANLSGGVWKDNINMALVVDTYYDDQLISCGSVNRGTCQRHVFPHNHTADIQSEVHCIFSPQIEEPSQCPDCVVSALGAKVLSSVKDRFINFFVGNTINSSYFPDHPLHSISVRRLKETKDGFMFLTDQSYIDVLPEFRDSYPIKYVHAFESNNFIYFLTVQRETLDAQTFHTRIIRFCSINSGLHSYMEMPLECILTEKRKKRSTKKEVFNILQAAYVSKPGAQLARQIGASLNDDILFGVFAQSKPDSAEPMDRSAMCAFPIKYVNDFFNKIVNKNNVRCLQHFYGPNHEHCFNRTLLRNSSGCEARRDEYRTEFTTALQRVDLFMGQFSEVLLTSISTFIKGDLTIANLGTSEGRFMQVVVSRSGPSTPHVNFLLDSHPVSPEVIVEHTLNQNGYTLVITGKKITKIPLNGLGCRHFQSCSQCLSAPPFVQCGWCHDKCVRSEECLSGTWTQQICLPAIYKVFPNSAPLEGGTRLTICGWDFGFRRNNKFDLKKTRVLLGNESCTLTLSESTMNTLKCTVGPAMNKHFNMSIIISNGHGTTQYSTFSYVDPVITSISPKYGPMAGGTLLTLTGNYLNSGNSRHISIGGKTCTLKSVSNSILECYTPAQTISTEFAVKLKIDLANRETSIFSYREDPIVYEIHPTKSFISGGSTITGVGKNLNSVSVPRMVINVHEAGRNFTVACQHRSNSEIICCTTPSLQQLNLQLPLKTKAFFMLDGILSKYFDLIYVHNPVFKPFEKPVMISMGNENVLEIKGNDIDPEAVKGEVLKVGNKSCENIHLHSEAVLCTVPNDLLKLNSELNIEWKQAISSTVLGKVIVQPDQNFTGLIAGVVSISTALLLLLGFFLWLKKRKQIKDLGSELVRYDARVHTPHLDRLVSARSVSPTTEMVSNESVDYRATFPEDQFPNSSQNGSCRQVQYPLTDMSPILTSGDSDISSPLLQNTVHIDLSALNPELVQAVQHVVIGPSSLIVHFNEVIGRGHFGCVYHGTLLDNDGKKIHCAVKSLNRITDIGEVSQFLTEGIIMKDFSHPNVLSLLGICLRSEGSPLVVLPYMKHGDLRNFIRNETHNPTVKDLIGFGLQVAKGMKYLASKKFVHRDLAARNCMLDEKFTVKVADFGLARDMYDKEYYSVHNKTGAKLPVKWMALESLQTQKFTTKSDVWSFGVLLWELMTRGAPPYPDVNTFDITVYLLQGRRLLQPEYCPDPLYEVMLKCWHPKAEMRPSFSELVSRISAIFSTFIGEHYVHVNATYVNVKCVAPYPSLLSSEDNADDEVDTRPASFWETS

| melting point [°C] | IC50 [1] [µM] | GI50 [2] [µM] | SMILES |
| --- | --- | --- | --- |
| 167 to 170 |  |  | O=C1NC(=O)[C@@H](c2cn3c4c(cccc24)CCC3)[C@@H]1c1c[nH]c2cc(O)ccc12 (racemic) [Compound 1, (rac)-trans-3-(5,6-dihydro-4H-pyrrolo[3,2,1-ij]quinolin-1-yl)-4-(6-hydroxy-1H-indol-3-yl)pyrrolidine-2,5-dione] |
| 153 to 155 |  |  | O=C1NC(=O)[C@@H](c2cn3c4c(cccc24)C(O)CC3)[C@@H]1c1c[nH]c2ccccc12 (mixture of isomers) [Compound 3, (rac)-trans-3-(6-hydroxy-5,6-dihydro-4H-pyrrolo[3,2,1-ij]quinolin-1-yl)-4-(1H-indol-3-yl)pyrrolidine-2,5-dione] |
|  | 1.6 ± 0.25 | 0.68 ± 0.05 | O=C1CCn2cc([C@@H]3C(=O)NC(=O)[C@H]3c3c[nH]c4ccccc34)c3cccc1c32 (racemic) [Compound 8, (3R,4R)-3-(1H-indol-3-yl)-4-(6-oxo-5,6-dihydro-4H-pyrrolo[3,2,1-ij]quinolin-1-yl)pyrrolidine-2,5-dione] |
|  | 1 | 3.1 ± 0.24 | O=C1NC(=O)[C@@H](c2cn3c4c(cccc24)CCC3=O)[C@@H]1c1c[nH]c2ccccc12 (racemic) [Compound 9, (3R,4R)-3-(1H-indol-3-yl)-4-(4-oxo-5,6-dihydro-4H-pyrrolo[3,2,1-ij]quinolin-1-yl)pyrrolidine-2,5-dione] |
|  | 2 ± 0.21 | 1.5 ± 0.21 | O=C1NC(=O)[C@@H](c2cn3c4c(cccc24)[C@@H](O)CC3)[C@@H]1c1c[nH]c2ccccc12 [Compound 10, (3R,4R)-3-((S)-6-hydroxy-5,6-dihydro-4H-pyrrolo[3,2,1-ij]quinolin-1-yl)-4-(1H-indol-3-yl)pyrrolidine-2,5-dione] |
|  | 2.6 ± 0.07 | 3.7 ± 0.42 | O=C1NC(=O)[C@@H](c2cn3c4c(cccc24)[C@H](O)CC3)[C@@H]1c1c[nH]c2ccccc12 [Compound 11, (3R,4R)-3-((R)-6-hydroxy-5,6-dihydro-4H-pyrrolo[3,2,1-ij]quinolin-1-yl)-4-(1H-indol-3-yl)pyrrolidine-2,5-dione] |
|  | > 30 | 31 ± 7.1 | O=C1NC(=O)[C@H](c2cn3c4c(cccc24)[C@H](O)CC3)[C@H]1c1c[nH]c2ccccc12 [Compound 12, (3S,4S)-3-((R)-6-hydroxy-5,6-dihydro-4H-pyrrolo[3,2,1-ij]quinolin-1-yl)-4-(1H-indol-3-yl)pyrrolidine-2,5-dione] |
|  | > 30 | 75 ± 33 | O=C1NC(=O)[C@H](c2cn3c4c(cccc24)[C@@H](O)CC3)[C@H]1c1c[nH]c2ccccc12 [Compound 13, (3S,4S)-3-((S)-6-hydroxy-5,6-dihydro-4H-pyrrolo[3,2,1-ij]quinolin-1-yl)-4-(1H-indol-3-yl)pyrrolidine-2,5-dione] |
